This is an account of results in ChEMBL document CHEMBL3758098, “3-(Dipropylamino)-5-hydroxybenzofuro[2,3-f]quinazolin-1(2H)-one (DPA-HBFQ-1) plays an inhibitory role on breast cancer cell growth and progression” (Eur J Med Chem, 2016).

pIC50: −log10 of the molar value. Activity calls are given as the source filed them. The calls are words filed in the database; no cut-off is given here.

Series [1] has as its system MDA-MB-231. In words: Cytotoxicity against human MDA-MB-231 cells assessed as growth inhibition at 1 uM after 5 days by MTT assay relative to vehicle-treated control. It is filed as functional.
A short description of series [2]: Cytotoxicity against human MCF10A cells assessed as growth inhibition at 1 uM after 5 days by MTT assay relative to vehicle-treated control. As to conditions: mcf-10a, 120 h. It counts as cell-based.
Series [3] relates to MCF7. The experiment in a line: Cytotoxicity against human MCF7 cells assessed as growth inhibition at 1 uM after 5 days by MTT assay relative to vehicle-treated control. It is filed as functional. To be noted: MCF7, 120 h, read-out: GI.
Series [4] concerns Ishikawa. The experiment in a line: Cytotoxicity against human Ishikawa cells assessed as growth inhibition by MTT assay. It is filed as functional, cell-based.
Series [5] is described as follows: Cytotoxicity against rat R2C cells assessed as growth inhibition by MTT assay. It is filed as functional, cell-based.
Series [6] concerns the target DNA topoisomerase 2-alpha (Homo sapiens) (UniProt P11388). To be noted: 50 uM.
Description: Inhibition of human topoisomerase 2 assessed as decatenation of kDNA at 50 uM after 30 mins by agarose gel electrophoresis
Series [7] in a line: Cytotoxicity against human MCF-7 TR1 cells assessed as cell colony formation after 14 days by crystal violet staining-based assay. It is filed as functional. As to conditions: MCF-7 TR1, 336 h.
Series [8] is described as follows: Cytotoxicity against human MCF10A cells assessed as cell viability after 5 days by MTT assay. It is filed as cell-based. As to conditions: MCF-10A, 120 h.
The test system of series [9] is MDA-MB-231. The experiment in a line: Cytotoxicity against human MDA-MB-231 cells assessed as cell viability after 5 days by MTT assay. It counts as functional, cell-based. As to conditions: MDA-MB-231, 120 h.
For series [10], the target named is DNA topoisomerase 2-alpha (Homo sapiens) (UniProt P11388). To be noted: 10 uM.
Description: Inhibition of human topoisomerase 2 assessed as decatenation of kDNA at 10 uM after 30 mins by agarose gel electrophoresis
Series [11] has as its system HepG2. In words: Cytotoxicity against human HepG2 cells assessed as growth inhibition by MTT assay. It is filed as functional, cell-based.
In series [12] the target is T1, DNA topoisomerase 1 (Homo sapiens) (UniProt P11387).
T1 sequence (whole entry): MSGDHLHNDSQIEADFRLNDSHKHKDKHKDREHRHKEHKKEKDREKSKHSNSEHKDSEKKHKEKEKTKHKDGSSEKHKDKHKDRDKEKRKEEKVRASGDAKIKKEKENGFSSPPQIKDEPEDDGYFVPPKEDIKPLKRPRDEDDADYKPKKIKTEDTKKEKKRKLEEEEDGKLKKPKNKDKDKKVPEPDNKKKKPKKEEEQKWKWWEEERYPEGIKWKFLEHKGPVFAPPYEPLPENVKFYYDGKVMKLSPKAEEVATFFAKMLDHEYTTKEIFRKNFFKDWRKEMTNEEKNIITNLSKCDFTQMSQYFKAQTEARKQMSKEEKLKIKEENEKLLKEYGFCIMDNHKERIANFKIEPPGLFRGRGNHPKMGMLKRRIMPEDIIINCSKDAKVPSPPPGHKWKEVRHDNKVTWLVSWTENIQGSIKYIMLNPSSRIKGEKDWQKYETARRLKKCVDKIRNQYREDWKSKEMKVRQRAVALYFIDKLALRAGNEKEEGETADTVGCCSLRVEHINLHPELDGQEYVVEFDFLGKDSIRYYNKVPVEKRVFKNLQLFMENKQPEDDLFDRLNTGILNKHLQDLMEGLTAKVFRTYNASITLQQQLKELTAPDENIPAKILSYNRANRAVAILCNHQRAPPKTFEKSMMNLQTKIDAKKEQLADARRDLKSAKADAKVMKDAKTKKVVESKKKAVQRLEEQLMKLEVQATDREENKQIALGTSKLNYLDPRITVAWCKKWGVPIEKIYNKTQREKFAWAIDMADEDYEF
In words: Inhibition of recombinant human topoisomerase 1 assessed as relaxation of supercoiled pHOT1 at 50 uM after 30 mins by agarose gel electrophoresis.

Series [13] relates to MCF7. In words: Cytotoxicity against human MCF7 cells assessed as cell viability after 5 days by MTT assay. It is filed as functional, cell-based. To be noted: MCF7, 120 h.
Series [14] has as its system HeLa. In words: Cytotoxicity against human HeLa cells assessed as growth inhibition by MTT assay. It is filed as functional, cell-based.
The target of series [15] is T1, DNA topoisomerase 1 (Homo sapiens). The experiment in a line: Inhibition of recombinant human topoisomerase 1 assessed as relaxation of supercoiled pHOT1 at 10 uM after 30 mins by agarose gel electrophoresis.

Sequence of DNA topoisomerase 2-alpha (Homo sapiens) (P11388 whole entry): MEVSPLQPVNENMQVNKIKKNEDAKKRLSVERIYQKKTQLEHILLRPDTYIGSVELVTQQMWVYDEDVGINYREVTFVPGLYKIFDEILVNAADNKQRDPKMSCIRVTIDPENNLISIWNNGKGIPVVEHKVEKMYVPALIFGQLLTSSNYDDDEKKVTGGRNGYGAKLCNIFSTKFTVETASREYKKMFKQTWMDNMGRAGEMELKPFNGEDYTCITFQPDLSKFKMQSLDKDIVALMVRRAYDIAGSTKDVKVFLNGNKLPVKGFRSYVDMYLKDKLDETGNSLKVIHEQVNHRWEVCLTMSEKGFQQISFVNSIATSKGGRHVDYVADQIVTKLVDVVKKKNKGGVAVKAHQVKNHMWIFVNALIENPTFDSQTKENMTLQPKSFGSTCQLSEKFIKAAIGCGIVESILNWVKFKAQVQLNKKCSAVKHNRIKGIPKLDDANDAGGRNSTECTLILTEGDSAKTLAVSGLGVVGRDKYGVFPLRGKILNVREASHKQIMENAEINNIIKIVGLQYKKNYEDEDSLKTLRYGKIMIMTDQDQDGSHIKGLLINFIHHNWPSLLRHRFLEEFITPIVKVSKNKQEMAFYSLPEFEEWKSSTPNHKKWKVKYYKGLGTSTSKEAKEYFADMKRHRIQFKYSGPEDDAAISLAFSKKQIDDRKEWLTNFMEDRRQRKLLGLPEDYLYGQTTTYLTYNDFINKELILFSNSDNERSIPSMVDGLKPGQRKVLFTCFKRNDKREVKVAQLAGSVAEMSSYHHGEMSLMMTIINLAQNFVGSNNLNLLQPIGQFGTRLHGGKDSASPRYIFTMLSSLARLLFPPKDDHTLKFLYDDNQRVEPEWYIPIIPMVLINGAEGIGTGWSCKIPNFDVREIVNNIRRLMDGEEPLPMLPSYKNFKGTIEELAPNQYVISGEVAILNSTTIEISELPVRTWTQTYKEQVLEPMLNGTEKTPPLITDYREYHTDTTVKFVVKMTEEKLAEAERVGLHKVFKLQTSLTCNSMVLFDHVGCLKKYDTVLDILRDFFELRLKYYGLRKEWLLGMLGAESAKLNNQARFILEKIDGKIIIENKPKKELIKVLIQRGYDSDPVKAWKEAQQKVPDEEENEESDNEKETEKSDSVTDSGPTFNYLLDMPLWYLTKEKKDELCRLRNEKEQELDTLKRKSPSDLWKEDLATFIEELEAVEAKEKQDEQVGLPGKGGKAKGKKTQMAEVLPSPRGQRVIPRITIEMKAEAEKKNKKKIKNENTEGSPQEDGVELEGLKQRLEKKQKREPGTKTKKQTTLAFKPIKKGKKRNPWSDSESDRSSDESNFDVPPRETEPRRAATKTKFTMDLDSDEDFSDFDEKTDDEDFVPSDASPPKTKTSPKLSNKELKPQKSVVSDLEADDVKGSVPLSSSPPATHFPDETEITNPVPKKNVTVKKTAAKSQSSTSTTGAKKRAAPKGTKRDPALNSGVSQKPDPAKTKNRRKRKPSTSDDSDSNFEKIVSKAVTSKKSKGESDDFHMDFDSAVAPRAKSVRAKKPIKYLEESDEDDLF

For `CCN(CC)c1nc2c(OC)cc3c4ccccc4oc3c2c(=O)[nH]1`, in [1], the “growth inhibition (GI)” value is “Active”. Moreover, in series [2], the Activity result is “Non-toxic”. Further, in series [3], the inhibition of growth at 1 µM came to 15%.

For the molecule `CCCN(CCC)c1nc2c(OC)cc3c4ccccc4oc3c2c(=O)[nH]1`, the “growth inhibition (GI)” value in [1] is “Active”. In addition, in [2], the Activity result is reported as “Non-toxic”. For the same molecule, in series [3], the inhibition of growth at 1 µM was 37%.

Turning to `Cc1c2ccncc2c(C)c2c1[nH]c1ccccc12` [ELLIPTECINE], the negative logarithm of the IC50 (pIC50) is 5.82 in [4]; 5.70 in series [5]; 5.76 in series [7]; 5.92 in series [8]; 5.74 in series [9]; 5.54 in [11]. Also, the negative logarithm of the IC50 (pIC50) is 5.90 in series [13] and 6.00 in series [14]. The inhibition entry in [6], in [10], in series [12] and in [15] was “Active” each time.

As for `CCCCN(CCCC)c1nc2c(OC)cc3c4ccccc4oc3c2c(=O)[nH]1`, the “growth inhibition (GI)” value in series [1] is “Active”. In [2], the Activity result is “Non-toxic”. The inhibition of growth at 1 µM in series [3] is 25%.
